Where a name gives a salt, the structure may show the parent alone.
What was measured:
[1] = molecular target: T1, HPK1 kinase (Homo sapiens, UniProt Q92918); assay: HPK1 kinase assay (Km concentration ATP); format: biochemical; conditions: for IC50: ATP at Km concentration (working concentration: 9 µM); for inhibitory activity against HPK1 kinase (in words): Km concentration ATP, conclusion
T1 construct: purchased Carna 07-410
T1 sequence (Q92918 1-346 limits assumed): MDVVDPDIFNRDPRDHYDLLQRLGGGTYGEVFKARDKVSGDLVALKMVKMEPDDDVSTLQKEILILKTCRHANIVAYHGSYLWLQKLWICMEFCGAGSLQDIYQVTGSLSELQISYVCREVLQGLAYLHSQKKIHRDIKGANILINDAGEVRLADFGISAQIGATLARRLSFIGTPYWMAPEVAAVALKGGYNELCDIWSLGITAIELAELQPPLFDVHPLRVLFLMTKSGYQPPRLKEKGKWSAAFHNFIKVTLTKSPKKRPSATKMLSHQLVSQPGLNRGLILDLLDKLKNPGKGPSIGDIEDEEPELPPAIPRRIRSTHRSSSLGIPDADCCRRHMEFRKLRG
Protocol: Test example 3: HPK1 kinase assay (Km concentration ATP)
The kinase HPK1 (Carna, Cat.No 07-410) was prepared into 2× kinase solution using 1× kinase buffer. The substrate Fluorescein-PKC (Invitrogen, Cat. No. PV3506) and ATP (working concentration: 9 µM) (Sigma, Cat. No. 2383-5G) were prepared into 2× substrate solution using 1×kinase buffer. The detection reagent was diluted to 2-fold the final concentration using an antibody diluent. 100 nL of compounds at different concentrations and 5 µL of kinase solution were added to each well of a 384-well plate, and the mixture was incubated at room temperature for 10 minutes. After the incubation was completed, 5 µL of substrate solution was added to each well, and the resulting mixture was reacted at room temperature for 90 minutes. After the reaction was completed, 10 µL of detection reagent was added to each well to terminate the reaction, and the mixture was incubated at room temperature for 60 minutes. Fluorescence readings were detected using an Envision instrument with excitation at 320 nm and emission at 520 nm and 495 nm. IC50 value was calculated using XLFit excel add-in version 5.4.0.8 software. The calculation formula of the inhibition rate was shown in formula 3-1, where max is the Ratio of the DMSO control, min is the Ratio of the negative control without enzyme, and sample is the Ratio of the compound. Ratio = RFU520nm /RFU495nm [formula] Inhibition% = (max−sample)/(max−min) × 100% [formula] Table 3-1 Inhibitory activity of test compounds against HPK1 kinase

[2] = molecular target: T2, HPK1 protein (Homo sapiens, UniProt Q92918); assay: Detection of HPK1 protein expression level in Jurkat cells (24 h); format: cell-based; conditions: 24 hours incubation
T2 construct: host or cells: Jurkat cells
Summary of the method: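 Jurkat cells at 5 × 10^5 cells/well were exposed to compounds for 24 h at 37 °C, with vehicle medium containing 0.2% DMSO as control. HPK1 in lysates (0.2 mg/mL) was measured by automated quantitative immunoassay and normalized to β-actin. Degradation was expressed relative to vehicle, and DC50 came from four-parameter fits.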

[3] = Pharmacokinetic test in mice; format: in vivo, ICR mice; conditions: mouse, plasma, po, i. g., 10 mg/kg
Summary of the method: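 Male ICR mice (20-35 g), fasted overnight and fed 4 h post-dose, received a single intravenous or intragastric dose. Orbital blood into EDTA-K2 tubes at 0–24 h; plasma quantified by LC-MS/MS to derive PK parameters and bioavailability.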

[4] = Pharmacokinetic test in rats; format: in vivo, SD rats; conditions: rat, plasma
Protocol: Test example 7: Pharmacokinetic test in rats
Experimental animals: Male SD rats, 180-200 g, purchased from Chengdu Dossy Experimental Animals Co., Ltd. with the laboratory animal production license number of SCXK (CHUAN) 2020-030.
Experimental design: on the day of the experiment, the SD rats were randomly grouped according to their body weights. The animals were fasted but with water available overnight before the administration, and fed 4 h after the administration.
Vehicle for intragastric administration: 5% Solutol+5% TPGS+30% PEG400+60% (20% SBE-β-CD)
Blood was taken from the orbits of the […] at specified time points, and placed in an EDTAK2 centrifuge tube. Centrifugation was performed at 5000 rpm for 10 min, and the plasma was collected.
Blood sampling time points for the intravenous administration group were: 0, 5 min, 15 min, 30 min, 1 h, 2 h, 4 h, 6 h, 8 h and 24 h; blood sampling time points for the intragastric administration group were: 0, 5 min, 15 min, 30 min, 1 h, 2 h, 4 h, 6 h, 8 h and 24 h. Before analysis and detection, all the samples were stored at - 60°C or lower. The samples were analysed quantitatively by LC-MS/MS. Table 7-1 PK data of test compound drug in rats

[5] = system: IL-2 secretion by T cells; assay: IL-2 detection assay in cells (ELISA, pan-T cells isolated from PBMCs); format: cell-based; conditions: IL-2, CD3 antibody-coated plate, 24 hours
Protocol: 9. IL-2 detection assay in cells
Activating effect of compounds on IL-2 secretion by T cells was evaluated using the ELISA method. Frozen PBMCs were thawed, and pan-T cells were isolated and purified using a T cell sorting kit (Stemcell, 17951). The cells were resuspended in 1640 complete medium and incubated in a 37°C&5%CO2 incubator overnight. A 96-well plate coated with an anti-human CD3 antibody (Thermo, 16-0037-38) at a final concentration of 5 µg/mL was incubated at 37°C for 2 h. The overnight-cultured cells were collected by centrifugation, the supernatant was discarded, and the cells were resuspended in 1640 complete medium, and seeded in the CD3 antibody-coated 96-well plate at a density of 10^5cells/well. The compounds at different concentrations were added, and the mixture was incubated in a 37°C&5%CO2 incubator for 24 hours. After the incubation was completed, the resulting mixture was centrifuged at 1000 rpm for 1 minute to collect the supernatant, and IL-2 was detected according to the ELISA instructions. DMSO without compounds was used as the control group to calculate the activation rate of the compounds, and prism was used to fit the activation curve. Maximum activation fold = maximum activation rate/control group. Table 9-1 Results of IL-2 activation by test compounds

T2 sequence (Q92918 whole entry): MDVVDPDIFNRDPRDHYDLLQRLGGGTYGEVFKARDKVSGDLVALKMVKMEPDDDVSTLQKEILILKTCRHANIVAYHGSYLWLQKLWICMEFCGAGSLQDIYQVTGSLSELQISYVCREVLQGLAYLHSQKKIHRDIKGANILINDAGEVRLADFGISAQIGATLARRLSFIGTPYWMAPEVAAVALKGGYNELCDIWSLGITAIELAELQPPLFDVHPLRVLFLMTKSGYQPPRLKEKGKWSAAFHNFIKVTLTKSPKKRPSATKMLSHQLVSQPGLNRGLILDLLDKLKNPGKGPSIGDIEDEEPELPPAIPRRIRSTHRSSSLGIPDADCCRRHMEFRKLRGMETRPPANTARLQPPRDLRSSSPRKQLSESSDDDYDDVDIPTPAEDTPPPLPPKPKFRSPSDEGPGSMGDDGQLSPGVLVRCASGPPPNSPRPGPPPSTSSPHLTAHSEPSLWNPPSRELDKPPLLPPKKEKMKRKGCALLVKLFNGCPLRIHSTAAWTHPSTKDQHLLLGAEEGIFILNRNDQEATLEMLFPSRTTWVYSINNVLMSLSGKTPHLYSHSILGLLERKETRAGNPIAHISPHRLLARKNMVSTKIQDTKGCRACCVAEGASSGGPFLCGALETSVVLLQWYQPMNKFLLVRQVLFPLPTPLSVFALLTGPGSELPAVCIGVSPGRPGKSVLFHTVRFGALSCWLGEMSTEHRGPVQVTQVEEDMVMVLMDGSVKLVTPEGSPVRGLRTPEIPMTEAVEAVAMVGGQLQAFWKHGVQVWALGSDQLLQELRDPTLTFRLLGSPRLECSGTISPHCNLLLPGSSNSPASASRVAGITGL

Structure (SMILES)	IC50 [1] [nM]	inhibitory activity against HPK1 kinase (in words) [1]	DC50 [2] [nM]	AUC [3] [ng·h/mL]	Cmax [3] [ng/mL]	half-life [3] [h]	clearance ([4]; IV, 2.5 mg/kg) [mL/min/kg]	half-life ([4]; IV, 2.5 mg/kg) [h]	AUC ([4]; po, i. g., 10 mg/kg) [ng·h/mL]	Cmax ([4]; po, i. g., 10 mg/kg) [ng/mL]	half-life ([4]; po, i. g., 10 mg/kg) [h]	Activation fold at 100 nM concentration ([5]; 100 nM)	Maximum activation fold ([5]; maximum activation rate/control group)
O=C1CCN(c2cc3c(cc2F)N2CCN(CC4CCN(c5ccc(Nc6ccc(-c7cnc8cc(F)ccn78)c7c6C(=O)NC7)nc5)CC4)C[C@@H]2CC3)C(=O)N1 [Compound 5]	< 10	good inhibitory activity	< 20	20000	1380	6.45							
O=C1CCN(c2ccc(N3CCN(CC4CCN(c5ccc(Nc6ccc(-c7cnc8cc(F)ccn78)c7c6C(=O)NC7)nc5)CC4)CC3)cc2F)C(=O)N1 [Trifluoroacetic acid salt of compound 2]	< 10	good inhibitory activity	< 20	16800	1280	5.79							
O=C1CCC(c2cc3c(cc2F)N2CCN(CC4CCN(c5ccc(Nc6ccc(-c7cnc8cc(F)ccn78)c7c6C(=O)NC7)nc5)CC4)C[C@@H]2CC3)C(=O)N1 (stereo partly shown) [Trifluoroacetic acid salt of compound 4]	< 10	good inhibitory activity	< 20	15200	1140	7.27							
O=C1CCN(c2cc3c(cc2F)N2CCN(CC4CCN(c5ccc(Nc6ccc(-c7cnc8cc(F)ccn78)c7c6C(=O)NC7)nc5)CC4)C[C@H]2CC3)C(=O)N1 [Trifluoroacetic acid salt of compound 6]	< 10	good inhibitory activity	< 20	20800	1520	5.35	9.78	6.58	8360	721	6.4	>10	>10

Reference: patent EP4810494A1, “HPK1 DEGRADATION AGENT AND USE THEREOF IN FIELD OF MEDICINE” (Haisco Pharmaceutical Group Co., Ltd., priority 2023, dated 2025)
